In patent publication US9067972B2, “Skin aging-inhibiting peptide” (CALPIS CO., LTD., priority 2008, dated 2015):
Peptide text beside a SMILES is read from it.

Each compound was assayed on Caco-2 cells.
Description: Caco-2 cells were obtained from the American Type Culture Collection. Cells with a passage number of 40 to 70 were used for the permeation test. The culture medium comprised Dulbecco's modified Eagle's medium (Sigma) supplemented with fetal bovine serum (10%, AGC TECHNO GLASS CO., LTD.), a non-essential amino acid solution (1%, Gibco), and penicillin-streptomycin (each 200 IU/ml, 200 μg/ml, Gibco). The Caco-2 cells were cultured under humidified conditions at 37° C. and 5% CO2, and subcultured for every 4 to 5 days. For the permeation test, the cells were cultured on a membrane filter in a 12-transwell (Millipore). To a basal side 1.5 ml of the culture medium was added and 0.5 ml of culture medium was added to an apical side, and the cells were cultured for approximately 2 weeks. The enzymatic hydrolysate of the fermented milk was added to the apical side of the cultured Caco-2 cells. Peptides which were permeated to the basal side were collected. For comparison, the same test was performed on a digestive tract enzyme-degraded product of non-fermented reconstituted skimmed milk with a reconstitution ratio of 8.9%.
The peptides which were permeated to the basal solution were subjected to solid phase extraction (SepPak tC18, Waters) to thereby concentrate the peptide component and then the peptides were determine by using a high-performance liquid chromatograph tandem mass spectrometer (LCMS-IT-TOF, Shimadzu Corporation). PEAKS (Bioinformatics Solutions Inc) was used to analyze the data. Based on the information obtained from MS/MS, de novo sequencing was performed to determine the amino acid sequence of the permeated peptides. Comparison was made between the detected peptides and peptides contained in a digestive tract enzyme-hydrolyzed product of a milk protein.

Permeation through Caco-2 monolayer (apical to basal side), permeable:
CC[C@H](C)[C@H](N)C(=O)N1CCC[C@H]1C(=O)N1CCC[C@H]1C(=O)O [Ile-Pro-Pro], CC(C)[C@H](N)C(=O)N1CCC[C@H]1C(=O)N1CCC[C@H]1C(=O)N[C@@H](Cc1ccccc1)C(=O)O [Val-Pro-Pro-Phe] (H-VPPF-OH; N-terminus and C-terminus assumed), CC(C)[C@H](NC(=O)[C@@H]1CCCN1)C(=O)N[C@H](C(=O)N[C@H](C(=O)N1CCC[C@H]1C(=O)N1CCC[C@H]1C(=O)O)C(C)C)C(C)C [Pro-Val-Val-Val-Pro-Pro] (H-PVVVPP-OH; N-terminus and C-terminus assumed), CC[C@H](C)[C@H](N)C(=O)N1CCC[C@H]1C(=O)N1CCC[C@H]1C(=O)N[C@@H](CC(C)C)C(=O)O [Ile-Pro-Pro-Leu] (H-IPPL-OH; N-terminus and C-terminus assumed), NC(=O)CC[C@H](NC(=O)[C@@H]1CCCN1C(=O)[C@@H]1CCCN1C(=O)[C@@H](N)Cc1ccccc1)C(=O)O [Phe-Pro-Pro-Gln] (H-FPPQ-OH; N-terminus and C-terminus assumed), CC(C)C[C@H](N)C(=O)N1CCC[C@H]1C(=O)N1CCC[C@H]1C(=O)N[C@H](C(=O)O)[C@@H](C)O [Leu-Pro-Pro-Thr] (H-LPPT-OH; N-terminus and C-terminus assumed), CC(C)[C@H](N)C(=O)N1CCC[C@H]1C(=O)N1CCC[C@H]1C(=O)O [Val-Pro-Pro], CC[C@H](C)[C@H](NC(=O)[C@@H](N)CC(N)=O)C(=O)N1CCC[C@H]1C(=O)N1CCC[C@H]1C(=O)N[C@@H](CC(C)C)C(=O)O [Asn-Ile-Pro-Pro-Leu] (H-NIPPL-OH; N-terminus and C-terminus assumed)
